Source: patent publication US9951226B2, “Compound based on cyanine scaffold for diagnosis sepsis by selectively detect glutathione” (EWHA UNIVERSITY—INDUSTRY COLLABORATION FOUNDATION, priority 2014, dated 2018)

Experiments:
HeLa cells = test: Detection of intracellular biothiol in HeLa cells, confocal laser scanning microscope; type: cell-based, human; details: 10 μM compound
Description: HeLa cells (human adenocarcinoma cells, Korea Cell Line Bank) were cultured in RPMI 1640 (Roswell Park Memorial Institute) supplemented with 10% heat-inactivated fetal bovine serum (FBS), 100 U/mL penicillin, and 100 U/mL streptomycin in a 37° C. 5% CO2 incubator. The cells were either treated or not treated with 1 mM of N-methylmaleimide (NMM) known as a thiol blocker for 20 minutes. 100 μM of each amino acid containing thiol group (R—SH) such as cysteine, homocysteine, and glutathione was added thereto. Then, the cells were seeded in 35-mm glass bottomed dishes at the density of 3×10^5 cells/dish in 1640 medium. 24 hours later, 10 μM of the compound prepared in Example 1 was added thereto, followed by culture at 37° C. for 20 minutes. The cells were washed with DPBS (Dulbecco's Phosphate Buffered Saline) twice to eliminate the remaining compound, followed by imaging with confocal laser scanning microscope (Fluoview 1200, Olympus, Japan). At this time, the emitting filter with the excitation wavelength of 635 nm and the band-path (BP) of 655˜755 nm was used.

[1] = Absorption and fluorescence spectrum according to the concentration of glutathione; type: biochemical
Description: (§1) 10 μM of the compound prepared in Example 2 and glutathione were added to HEPES (4-(2-hydroxyethyl)piperazine-1-ethanesulfonic acid) buffer (10 mM, pH=7.4) containing 10% dimethylsulfoxide (DMSO) with raising slowly the concentration of glutathione from 0 to 50 μM, during which the changes of absorption spectrum were observed using UV-vis sepctra (Scinco 3000 spectrophotometer, 1 cm quartz cell) at 25° C.
(§2) The following experiment was performed by the same manner as described in Experimental Example <4-1> except that fluorescence spectrum was observed by using RF-5310/PC fluorescence spectrometer (Shimada, 1 cm quartz cell) instead of observing absorption spectrum via UV-vis sepctra (Scinco 3000 spectrophotometer, 1 cm quartz cell) (λex=730 nm, λem=736 nm, slit:10/10 nm).
as §1, with “Example 3” for “Example 2”, “to 100” for “to 50”
as §2, with “<16-1>” for “<4-1>”

[2] = Glutathione selectivity: absorption/fluorescence spectrum with various amino acids in HEPES buffer; type: biochemical; details: 10 μM compound
Description: 10 μM of the compound prepared in Example 2 was treated to HEPES (4-(2-hydroxyethyl)piperazine-1-ethanesulfonic acid) buffer (10 mM, pH=7.4) containing 10% DMSO and 100 μM of each glutathione, cysteine, homocysteine, dithiothreitol, phenylalanine, histidine, glutamine, lysine, glutamate, glycine, serine, alanine, arginine, methionine, and tyrosine, followed by observation of fluorescence spectrum at 25° C. by using RF-5310/PC fluorescence spectrometer (Shimada, 1 cm quartz cell).
An experiment was performed by the same manner as described in Experimental Example 3 except that the fragment 1 or the fragment 2 was used instead of the compound prepared in Example 2. […] To disclose the reason in relation to the above, the 3-dimensional structure of each of the compound of Example 1, the compound of Example 2, and the fragment 1 or the fragment 2, was investigated along with band-gap.
10 μM of the compound prepared in Example 3 and 100 μM of each endogenous amino acid (alanine, arginine, cysteine, glutamate, glycine, glutathione, homocysteine, histidine, lysine, methionine, serine, and tyrosine) were added to HEPES (4-(2-hydroxyethyl)piperazine-1-ethanesulfonic acid) buffer (10 mM, pH=7.4) containing 10% dimethylsulfoxide (DMSO), followed by observation of absorption spectrum presented through UV-vis sepctra (Scinco 3000 spectrophotometer, 1 cm quartz cell) at 25° C.
as §2, with “<15-1>” for “<4-1>”

RAW 264.7 cells = test: Changes of glutathione concentration in the presence of an oxidant (peroxynitrite), RAW 264.7 cells; type: cell-based; details: for red fluorescence under confocal laser scanning microscope: 20 μM compound
Description: RAW 264.7 cells (macrophage cell line, Korea Cell Line Bank) were cultured in RPMI 1640 (Roswell Park Memorial Institute) supplemented with 10% heat-inactivated fetal bovine serum (FBS), 100 U/mL penicillin, and 100 U/mL streptomycin in a 37° C. 5% CO2 incubator.
RAW 264.7 cells displaying the characteristics of generating ROS (Reactive Oxygen Species) or RNS (Reactive Nitrogen Species) were treated with 1 μg/mL of lipopolysaccharide (LPS) for 20 minutes, 50 ng/mL of interferon-γ for 16 hours, and 20 μM of phorbol 12-myristate 13-acetate (PMA) for 20 minutes in order to induce the generation of endogenous feroxynitrite having the characteristics of an oxidant. Then, the cells were seeded in 35-mm glass bottomed dishes at the density of 3×10^5 cells/dish in 1640 medium. 24 hours later, the compound prepared in Example 2 was treated thereto at the concentration of 20 μM for 20 minutes. The cells were washed with DPBS (Dulbecco's Phosphate Buffered Saline) three times, followed by imaging with confocal laser scanning microscope (Fluoview 1200, Olympus, Japan). At this time, the emitting filter with the excitation wavelength of 635 nm and the band-path (BP) of 655˜755 nm was used.

[3] = 10 μM compound, glutathione not added
[4] = 10 μM compound, glutathione raised from 0 to 50 μM

For `CCCN1/C(=C/C=C2\CCCC(/C=C/C3=[N+](CCC)c4ccccc4C3(C)C)=C2N2CCN(S(=O)(=O)c3cccc4c(N(C)C)cccc34)CC2)C(C)(C)c2ccccc21.[I-]` [Example 2, 2-((E)-2-((E)-3-((E)-2-(3,3-dimethyl-1-propylindolin-2-ylidene)ethylidene)-2-(4-(5-(dimethylamino)naphthalene-1-ylsulfonyl)piperazine-1-yl)cyclohex-1-enyl)binyl)-3,3-dimethyl-1-propyl-3H-indolium iodide], the “red fluorescence under confocal laser scanning microscope” value (from here on “red fluorescence”) (HeLa cells; HeLa cells pre-treated with NMM, 100 μM cysteine added) was “red fluorescence was not detected”, the “red fluorescence” value (HeLa cells; HeLa cells pre-treated with NMM, 100 μM glutathione added) was “strong red fluorescence was observed” and the “red fluorescence” value (HeLa cells; HeLa cells pre-treated with NMM, 100 μM homocysteine added) was “red fluorescence was not detected”. The “red fluorescence” value (HeLa cells; HeLa cells pre-treated with thiol blocker NMM 1 mM) was “red fluorescence was not observed”, the “red fluorescence” value (HeLa cells; HeLa cells, 20 minutes) was “strong red fluorescence was observed” and the “absorption strength at 750 nm” value [1, 3] was “weak absorption strength”. The “fluorescence signal at 736 nm” value [1, 3] was “weak fluorescence signal”, the “absorption signal at 750 nm” value [1, 4] was “getting stronger” and the “fluorescence signal at 736 nm” value [1, 4] was “getting stronger”. The “dependence of the reaction on glutathione concentration” value ([1]; conclusion from absorption and fluorescence spectra) was “glutathione dose-dependent”, the “fluorescence strength near 735 nm” value ([2]; 100 μM glutathione, HEPES pH 7.4, 10% DMSO, 25° C.) was “strong fluorescence strength” and the “fluorescence strength at 736 nm” value ([2]; 100 μM other amino acids, HEPES pH 7.4, 10% DMSO) was “very weak fluorescence strength”. The “fluorescence signal at around 736 nm over the time: selectivity among cysteine, homocysteine and glutathione” value ([2]; glutathione, cysteine, homocysteine, FIG. 5) was “selectively reacted to glutathione alone”, the “red fluorescence” value (RAW 264.7 cells; RAW 264.7 cells with induced peroxynitrite (LPS, interferon-γ, PMA)) was “red fluorescence was not observed” and the “red fluorescence” value (RAW 264.7 cells; RAW 264.7 cells, 20 minutes) was “strong red fluorescence”. The “reaction to oxidized glutathione, glutathione disulfide (GSSG)” value (RAW 264.7 cells; RAW 264.7 cells, peroxynitrite) was “did not react”.
